Laboratory results from ChEMBL document CHEMBL1201862, “PubChem BioAssay data set” (2004).
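Protocol summary: plate cells (96-well), add compound at 5 concentrations, incubate 48 h, interpolate endpoints linearly. GI50 is the concentration that inhibits growth by half.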 Active and inactive are the calls of the source. No stated cut-off is given here; in the data, active = GI50 up to about 1.1 µM and inactive = higher.

Assays:
Assay in all cases: inhibition of tumour cell growth, NCI panel, 48 h
SNB-75 = tested on: SNB-75
Malme-3M = tested on: Malme-3M
MDA-MB-231 = tested on: MDA-MB-231
EKVX = tested on: EKVX
COLO 205 = tested on: COLO 205
CAKI-1 = tested on: CAKI-1
HCT-15 = tested on: HCT-15
786-0 = tested on: 786-0
M14 = tested on: M14
SK-MEL-28 = tested on: SK-MEL-28
OVCAR-5 = tested on: OVCAR-5
K562 = tested on: K562
RPMI-8226 = tested on: RPMI-8226
SF-539 = tested on: SF-539
UACC-257 = tested on: UACC-257
HT-29 = tested on: HT-29
HOP-62 = tested on: HOP-62
Hs-578T = tested on: Hs-578T
BT-549 = tested on: BT-549
SF-295 = tested on: SF-295
HOP-92 = tested on: HOP-92
SK-MEL-5 = tested on: SK-MEL-5
A498 = tested on: A498
T47D = tested on: T47D
MDA-N = tested on: MDA-N
SW-620 = tested on: SW-620
SNB-19 = tested on: SNB-19
TK-10 = tested on: TK-10
MCF7 = tested on: MCF7
U-251 = tested on: U-251
SN12C = tested on: SN12C
MDA-MB-435 = tested on: MDA-MB-435
SR = tested on: SR
NCI-H23 = tested on: NCI-H23
MOLT-4 = tested on: MOLT-4
OVCAR-8 = tested on: OVCAR-8
A549 = tested on: A549
DU-145 = tested on: DU-145
PC-3 = tested on: PC-3
OVCAR-4 = tested on: OVCAR-4
IGROV-1 = tested on: IGROV-1
NCI-H460 = tested on: NCI-H460
NCI/ADR-RES = tested on: NCI/ADR-RES
KM12 = tested on: KM12
SK-MEL-2 = tested on: SK-MEL-2
NCI-H522 = tested on: NCI-H522
ACHN = tested on: ACHN
HCT-116 = tested on: HCT-116
SK-OV-3 = tested on: SK-OV-3
OVCAR-3 = tested on: OVCAR-3
UACC-62 = tested on: UACC-62
LOX IMVI = tested on: LOX IMVI
SF-268 = tested on: SF-268
RXF 393 = tested on: RXF 393
NCI-H226 = tested on: NCI-H226
CCRF-CEM = tested on: CCRF-CEM
HCC 2998 = tested on: HCC 2998
UO-31 = tested on: UO-31
HL-60 = tested on: HL-60

**Q.** For `CC(=O)C(C(=N)C#N)C(=O)Nc1ccccc1` (configuration not stated), which GI50 (SNB-75) is on record?
**A.** > 100 µM (inactive)

**Q.** And the GI50 (Malme-3M)?
**A.** > 100 µM (inactive)

**Q.** What about the GI50 (MDA-MB-231) of the same compound?
**A.** > 100 µM (inactive)

**Q.** And the GI50 (EKVX)?
**A.** > 100 µM (inactive)

**Q.** And the GI50 (COLO 205)?
**A.** > 100 µM (inactive)

**Q.** And the GI50 (CAKI-1)?
**A.** > 100 µM (inactive)

**Q.** And the GI50 (HCT-15)?
**A.** > 100 µM

**Q.** And the GI50 (786-0)?
**A.** > 100 µM (inactive)

**Q.** And the GI50 (M14)?
**A.** > 100 µM (inactive)

**Q.** What about the GI50 (SK-MEL-28) of the same compound?
**A.** > 100 µM (inactive)

**Q.** What about the GI50 (OVCAR-5) of the same compound?
**A.** > 100 µM (inactive)

**Q.** What about the GI50 (K562) of the same compound?
**A.** > 100 µM (inactive)

**Q.** And the GI50 (RPMI-8226)?
**A.** > 100 µM (inactive)

**Q.** And the GI50 (SF-539)?
**A.** > 100 µM (inactive)

**Q.** What about the GI50 (UACC-257) of the same compound?
**A.** > 100 µM (inactive)

**Q.** What about the GI50 (HT-29) of the same compound?
**A.** > 100 µM (inactive)

**Q.** And the GI50 (HOP-62)?
**A.** > 100 µM (inactive)

**Q.** And the GI50 (Hs-578T)?
**A.** 44.9 µM (inactive)

**Q.** And the GI50 (BT-549)?
**A.** > 100 µM (inactive)

**Q.** And the GI50 (SF-295)?
**A.** > 100 µM (inactive)

**Q.** What about the GI50 (HOP-92) of the same compound?
**A.** > 100 µM (inactive)

**Q.** And the GI50 (SK-MEL-5)?
**A.** > 100 µM (inactive)

**Q.** And the GI50 (A498)?
**A.** > 100 µM (inactive)

**Q.** What about the GI50 (T47D) of the same compound?
**A.** > 100 µM (inactive)

**Q.** What about the GI50 (MDA-N) of the same compound?
**A.** > 100 µM (inactive)

**Q.** And the GI50 (SW-620)?
**A.** > 100 µM (inactive)

**Q.** And the GI50 (SNB-19)?
**A.** > 100 µM (inactive)

**Q.** What about the GI50 (TK-10) of the same compound?
**A.** > 100 µM (inactive)

**Q.** What about the GI50 (MCF7) of the same compound?
**A.** > 100 µM (inactive)

**Q.** And the GI50 (U-251)?
**A.** > 100 µM (inactive)

**Q.** And the GI50 (SN12C)?
**A.** > 100 µM (inactive)

**Q.** What about the GI50 (MDA-MB-435) of the same compound?
**A.** > 100 µM (inactive)

**Q.** What about the GI50 (SR) of the same compound?
**A.** > 100 µM (inactive)

**Q.** What about the GI50 (NCI-H23) of the same compound?
**A.** > 100 µM (inactive)

**Q.** And the GI50 (MOLT-4)?
**A.** > 100 µM (inactive)

**Q.** What about the GI50 (OVCAR-8) of the same compound?
**A.** > 100 µM (inactive)

**Q.** And the GI50 (A549)?
**A.** > 100 µM (inactive)

**Q.** And the GI50 (DU-145)?
**A.** > 100 µM (inactive)

**Q.** And the GI50 (PC-3)?
**A.** > 100 µM (inactive)

**Q.** And the GI50 (OVCAR-4)?
**A.** > 100 µM (inactive)

**Q.** And the GI50 (IGROV-1)?
**A.** > 100 µM (inactive)

**Q.** What about the GI50 (NCI-H460) of the same compound?
**A.** > 100 µM (inactive)

**Q.** What about the GI50 (NCI/ADR-RES) of the same compound?
**A.** > 100 µM (inactive)

**Q.** And the GI50 (KM12)?
**A.** > 100 µM (inactive)

**Q.** What about the GI50 (SK-MEL-2) of the same compound?
**A.** > 100 µM (inactive)

**Q.** And the GI50 (NCI-H522)?
**A.** > 100 µM (inactive)

**Q.** What about the GI50 (ACHN) of the same compound?
**A.** > 100 µM (inactive)

**Q.** What about the GI50 (HCT-116) of the same compound?
**A.** > 100 µM (inactive)

**Q.** What about the GI50 (SK-OV-3) of the same compound?
**A.** > 100 µM (inactive)

**Q.** What about the GI50 (OVCAR-3) of the same compound?
**A.** > 100 µM (inactive)

**Q.** What about the GI50 (UACC-62) of the same compound?
**A.** > 100 µM (inactive)

**Q.** And the GI50 (LOX IMVI)?
**A.** > 100 µM (inactive)

**Q.** And the GI50 (SF-268)?
**A.** > 100 µM (inactive)

**Q.** And the GI50 (RXF 393)?
**A.** > 100 µM (inactive)

**Q.** And the GI50 (NCI-H226)?
**A.** > 100 µM (inactive)

**Q.** And the GI50 (CCRF-CEM)?
**A.** > 100 µM (inactive)

**Q.** `Nc1nc(NCC2(CO)CCC2)cc(=O)[nH]1` was tested. Which GI50 (SNB-75) did it give?
**A.** > 100 µM (inactive)

**Q.** And the GI50 (Malme-3M)?
**A.** > 100 µM (inactive)

**Q.** What about the GI50 (MDA-MB-231) of the same compound?
**A.** > 100 µM (inactive)

**Q.** What about the GI50 (EKVX) of the same compound?
**A.** > 100 µM (inactive)

**Q.** And the GI50 (COLO 205)?
**A.** > 100 µM (inactive)

**Q.** What about the GI50 (CAKI-1) of the same compound?
**A.** > 100 µM (inactive)

**Q.** What about the GI50 (HCT-15) of the same compound?
**A.** > 100 µM

**Q.** And the GI50 (786-0)?
**A.** > 100 µM (inactive)

**Q.** What about the GI50 (HCC 2998) of the same compound?
**A.** > 100 µM (inactive)

**Q.** And the GI50 (M14)?
**A.** > 100 µM (inactive)

**Q.** What about the GI50 (SK-MEL-28) of the same compound?
**A.** > 100 µM (inactive)

**Q.** What about the GI50 (OVCAR-5) of the same compound?
**A.** > 100 µM (inactive)

**Q.** And the GI50 (K562)?
**A.** > 100 µM (inactive)

**Q.** And the GI50 (RPMI-8226)?
**A.** > 100 µM (inactive)

**Q.** What about the GI50 (UACC-257) of the same compound?
**A.** > 100 µM (inactive)

**Q.** And the GI50 (HT-29)?
**A.** > 100 µM (inactive)

**Q.** What about the GI50 (HOP-62) of the same compound?
**A.** > 100 µM (inactive)

**Q.** And the GI50 (Hs-578T)?
**A.** > 100 µM (inactive)

**Q.** What about the GI50 (BT-549) of the same compound?
**A.** > 100 µM (inactive)

**Q.** What about the GI50 (SF-295) of the same compound?
**A.** > 100 µM (inactive)

**Q.** And the GI50 (HOP-92)?
**A.** > 100 µM (inactive)

**Q.** And the GI50 (SK-MEL-5)?
**A.** > 100 µM (inactive)

**Q.** What about the GI50 (A498) of the same compound?
**A.** > 100 µM (inactive)

**Q.** And the GI50 (T47D)?
**A.** > 100 µM (inactive)

**Q.** What about the GI50 (MDA-N) of the same compound?
**A.** > 100 µM (inactive)

**Q.** What about the GI50 (SW-620) of the same compound?
**A.** > 100 µM (inactive)

**Q.** What about the GI50 (SNB-19) of the same compound?
**A.** > 100 µM (inactive)

**Q.** And the GI50 (UO-31)?
**A.** > 100 µM (inactive)

**Q.** And the GI50 (MCF7)?
**A.** > 100 µM (inactive)

**Q.** And the GI50 (U-251)?
**A.** > 100 µM (inactive)

**Q.** And the GI50 (SN12C)?
**A.** > 100 µM (inactive)

**Q.** What about the GI50 (MDA-MB-435) of the same compound?
**A.** > 100 µM (inactive)

**Q.** What about the GI50 (SR) of the same compound?
**A.** > 100 µM (inactive)

**Q.** And the GI50 (NCI-H23)?
**A.** > 100 µM (inactive)

**Q.** And the GI50 (MOLT-4)?
**A.** > 100 µM (inactive)

**Q.** What about the GI50 (OVCAR-8) of the same compound?
**A.** > 100 µM (inactive)

**Q.** And the GI50 (A549)?
**A.** > 100 µM (inactive)

**Q.** And the GI50 (DU-145)?
**A.** > 100 µM (inactive)

**Q.** What about the GI50 (PC-3) of the same compound?
**A.** > 100 µM (inactive)

**Q.** And the GI50 (OVCAR-4)?
**A.** > 100 µM (inactive)

**Q.** And the GI50 (IGROV-1)?
**A.** > 100 µM (inactive)

**Q.** And the GI50 (NCI-H460)?
**A.** > 100 µM (inactive)

**Q.** And the GI50 (NCI/ADR-RES)?
**A.** > 100 µM (inactive)

**Q.** And the GI50 (HL-60)?
**A.** > 100 µM (inactive)

**Q.** And the GI50 (KM12)?
**A.** > 100 µM (inactive)

**Q.** And the GI50 (SK-MEL-2)?
**A.** > 100 µM (inactive)

**Q.** And the GI50 (NCI-H522)?
**A.** > 100 µM (inactive)

**Q.** And the GI50 (HCT-116)?
**A.** > 100 µM (inactive)

**Q.** What about the GI50 (SK-OV-3) of the same compound?
**A.** > 100 µM (inactive)

**Q.** What about the GI50 (OVCAR-3) of the same compound?
**A.** > 100 µM (inactive)

**Q.** And the GI50 (UACC-62)?
**A.** > 100 µM (inactive)

**Q.** What about the GI50 (LOX IMVI) of the same compound?
**A.** > 100 µM (inactive)

**Q.** What about the GI50 (SF-268) of the same compound?
**A.** > 100 µM (inactive)

**Q.** What about the GI50 (RXF 393) of the same compound?
**A.** > 100 µM (inactive)

**Q.** And the GI50 (NCI-H226)?
**A.** > 100 µM (inactive)

**Q.** And the GI50 (CCRF-CEM)?
**A.** > 100 µM (inactive)
